We go through ten compounds from article PMC8092340 (Oncotarget, 2021).

Where two headings read alike, the source gives them in different places. Bounds are passed on as bounds.

One data set concerns the target T1, CYP3A4 (Homo sapiens, UniProt P08684).
T1 construct: tissue Eurofins Scientific; host or cells: human liver microsomes
Put plainly: Cytochrome P450 inhibition assay in human liver microsomes, CYP3A4. Format: in vitro ADME. The conditions noted are these: for IC50 / selectivity ratio: human liver microsomes; for selectivity ratio: human, read-out: SICYP 3A4 (selectivity index of CYP, CYP3A4 IC50 to alt-NHEJ IC50), called fold decrease in CYP3A4 inhibition. Here is the method: (§1) CYP inhibition assays were performed by Eurofins Scientific. Test compounds were incubated with human liver microsomes, followed by compound detection using high performance liquid chromatography with tandem mass spectrometry (HPLC-MS/MS).

The target of another data set is T2, CYP2D6 (Homo sapiens, UniProt P10635).
T2 construct: tissue Eurofins Scientific; host or cells: human liver microsomes
T2 sequence (P10635 whole entry): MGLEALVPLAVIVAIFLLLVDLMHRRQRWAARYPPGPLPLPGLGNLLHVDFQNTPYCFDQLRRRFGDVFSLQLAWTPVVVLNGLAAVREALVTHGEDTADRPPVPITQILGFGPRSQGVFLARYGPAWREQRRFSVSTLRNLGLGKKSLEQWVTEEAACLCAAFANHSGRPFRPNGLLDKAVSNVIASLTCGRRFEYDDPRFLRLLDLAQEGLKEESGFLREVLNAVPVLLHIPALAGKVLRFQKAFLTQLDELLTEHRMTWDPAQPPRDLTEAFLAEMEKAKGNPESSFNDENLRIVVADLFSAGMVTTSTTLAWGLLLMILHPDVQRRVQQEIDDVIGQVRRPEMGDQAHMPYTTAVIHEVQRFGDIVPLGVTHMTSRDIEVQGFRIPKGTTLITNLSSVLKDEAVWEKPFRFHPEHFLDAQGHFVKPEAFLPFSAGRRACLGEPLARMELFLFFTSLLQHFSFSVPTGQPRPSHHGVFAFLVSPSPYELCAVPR
Put plainly: Cytochrome P450 inhibition assay in human liver microsomes, CYP2D6. Type of data set: in vitro ADME. The conditions noted are these: for IC50 / selectivity ratio: human liver microsomes; for selectivity ratio: human, read-out: SICYP 2D6 (selectivity index of CYP, CYP2D6 IC50 to alt-NHEJ IC50), called fold decrease in CYP2D6 inhibition. Here is the method: as §1

For another data set, the system named is alt-NHEJ. Put plainly: EJ-DR 384-well imaging assay, alt-NHEJ (RFP) readout.
The subject of another data set is EJ-DR U2OS cells. Put plainly: Cytotoxicity in the absence of DSB ligands (CT), Hoechst cell count. Type of data set: cell-based, human. As to conditions: Supplementary Table 2, mean ± SEM of four technical replicates.
Another data set concerns HR. Nature of the data set: EJ-DR 384-well imaging assay, HR (GFP) readout. As to conditions: read-out: HR IC50.
Data set [1] in a line: Cytotoxicity in the absence of DSB ligands (CT), Hoechst cell count. Format: cell-based, human. The conditions noted are these: human, EJ-DR U2OS cells, no DSB ligands.
Method: (§4) In addition to quantifying HR and alt-NHEJ activities, cytotoxicity in the absence of DSB ligands (CT) was also evaluated by quantifying the number of Hoeschst 33342-stained cells, allowing us to better understand the margin between on-target and presumable off-target, DNA repair-independent effects. IC50 values of HR inhibition, alt-NHEJ inhibition, and CT were used to calculate the “selectivity index” (SI) (defined as the ratio of CT IC50/alt-NHEJ IC50) and alt-NHEJ selectivity defined as HR IC50/alt-NHEJ IC50. […] (Figure 1E).
(§5) The EJ-DR cell line was cultured in high glucose Dulbecco’s modified Eagle’s medium (DMEM; Thermo Fisher Scientific) with L-glutamine containing 10% tetracycline-free (tet-free) fetal bovine serum (FBS; Takara Bio Inc. and Atlanta Biologics) and 1% Penicillin Streptomycin (Thermo Fisher Scientific). […] All cells were maintained at 37°C with 5% CO2.
(§6) The EJ-DR cells were plated in 384-well imaging plates at 2500 cells/well. 24 hours later, the DSB ligands, Triamcinolone Acetonide (TA; Sigma-Aldrich Co., LLC) and Shield-1 (Takara Bio Inc.), responsible for inducing the DSBs, were added for a final concentration of 100 nM TA and 1 μM Shield-1. Test compounds were also added at the same time using Echo 550 Acoustic Dispenser (Labcyte). A separate plate was seeded to test for cytotoxicity of the test compounds in the absence of the DSB ligands. […] The DSB ligands were washed out 24 hours after addition. 96 hours after addition of the ligands and test compounds, the media was washed off and cells were incubated with Hoechst nuclear stain in Live Cell Imaging Solution (Thermo Fisher Scientific). Plates were rinsed and prepared for immediate live cell imaging using GE IN Cell 2200 (Cytiva Life Sciences). Images were analyzed using InCell Analyzer software (Cytiva Life Sciences). Nuclei were segmented based on the Hoechst staining, and the intensity of the GFP and RFP signals in control populations were measured and binned into histograms to determine signal intensity threshold. The GFP and RFP intensity of all wells was then analyzed, and the percent of positive cells with GFP and RFP intensity above the threshold was calculated to determine the induction of signal. The DAPI cell counts were used to determine the relative cytotoxicity of test compounds in the absence of induced DNA damage.
In the next data set the target is T3, L type Cav 1.2 (Homo sapiens, UniProt Q13936).
T3 construct: host or cells: CHO
Nature of the data set: Calcium channel blocking study, L-type. Format: cell-based. The conditions noted are these: CHO cells stably expressing the channel.

The target in another data set is T4, T type Cav 3.1 (Homo sapiens, UniProt O43497).
T4 construct: host or cells: HEK293
Nature of the data set: Calcium channel blocking study, T-type Cav3.1. The conditions noted are these: HEK293 cells stably expressing the channel. Format: cell-based.

The next data set deals with T5, T type Cav 3.2 (Homo sapiens, UniProt O95180).
T5 construct: host or cells: HEK293
Nature of the data set: Calcium channel blocking study, T-type Cav3.2. Type of data set: cell-based. The conditions noted are these: HEK293 cells stably expressing the channel.

The next data set addresses T6, T type Cav 3.3 (Homo sapiens, UniProt Q9P0X4).
T6 construct: host or cells: HEK293
Put plainly: Calcium channel blocking study, T-type Cav3.3. As to conditions: HEK293 cells stably expressing the channel. Type of data set: cell-based.

A short description of data set [2]: In vivo pharmacokinetic study, plasma. Here is the method:
(§2) These measurements were used to calculate various pharmacokinetic parameters critical to bioavailability including time to reach maximum concentration (tmax), maximum concentration achieved (Cmax), and half-life (t1/2) (Figure 5C, 5D, Supplementary Table 1).
(§3) Compound concentrations were measured at these time-points using Liquid Chromatography with tandem mass spectrometry (LC-MS-MS). Pharmacokinetic studies were performed by orally dosing test compounds at 30 mg/kg dissolved in 50% PEG400 and 50% water in female athymic nude mice. Plasma and brain tissue concentration were measured using mass spectrometry (MS).

Data set [3] can be described thus: In vivo pharmacokinetic study, brain tissue. Here is the method:
as §2, §3

The target in a further data set is T7, Human hERG (Kv11.1) (Homo sapiens, UniProt Q12809).
T7 construct: host or cells: CHO-K1
T7 sequence (Q12809 whole entry): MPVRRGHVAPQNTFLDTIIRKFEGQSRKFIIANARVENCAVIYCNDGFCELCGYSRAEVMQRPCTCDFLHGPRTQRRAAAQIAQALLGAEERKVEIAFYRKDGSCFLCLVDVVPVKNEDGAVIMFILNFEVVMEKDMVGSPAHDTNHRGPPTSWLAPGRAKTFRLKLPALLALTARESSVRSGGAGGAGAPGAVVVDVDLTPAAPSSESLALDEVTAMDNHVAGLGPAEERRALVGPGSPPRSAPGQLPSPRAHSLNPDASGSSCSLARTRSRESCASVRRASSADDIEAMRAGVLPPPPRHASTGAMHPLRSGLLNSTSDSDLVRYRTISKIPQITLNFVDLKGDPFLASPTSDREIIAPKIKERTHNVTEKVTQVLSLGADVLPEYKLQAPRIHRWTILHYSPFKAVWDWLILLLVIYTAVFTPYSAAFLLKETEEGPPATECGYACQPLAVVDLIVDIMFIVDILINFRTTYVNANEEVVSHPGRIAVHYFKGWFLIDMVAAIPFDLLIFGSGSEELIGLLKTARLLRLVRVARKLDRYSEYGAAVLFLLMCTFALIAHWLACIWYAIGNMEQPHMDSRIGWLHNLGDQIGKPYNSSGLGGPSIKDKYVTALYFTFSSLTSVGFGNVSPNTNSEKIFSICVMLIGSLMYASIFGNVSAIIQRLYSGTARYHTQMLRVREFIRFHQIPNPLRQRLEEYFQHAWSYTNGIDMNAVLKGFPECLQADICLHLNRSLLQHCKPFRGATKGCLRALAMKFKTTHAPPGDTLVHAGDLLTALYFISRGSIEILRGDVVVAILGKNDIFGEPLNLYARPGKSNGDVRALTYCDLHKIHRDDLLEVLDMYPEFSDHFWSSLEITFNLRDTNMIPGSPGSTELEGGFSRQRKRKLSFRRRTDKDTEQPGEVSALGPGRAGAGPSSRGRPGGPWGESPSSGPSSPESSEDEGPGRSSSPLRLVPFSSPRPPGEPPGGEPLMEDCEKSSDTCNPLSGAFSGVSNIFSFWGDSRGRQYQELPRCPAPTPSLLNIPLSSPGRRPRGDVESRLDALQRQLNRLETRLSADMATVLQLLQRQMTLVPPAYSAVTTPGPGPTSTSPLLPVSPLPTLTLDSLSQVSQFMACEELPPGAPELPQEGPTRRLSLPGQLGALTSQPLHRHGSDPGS
Nature of the data set: Automated hERG inhibition patch clamp assay. Format: cell-based. Here is the method:
Automated whole cell voltage clamp hERG inhibition assays were performed in Human hERG (Kv11.1) expressed in CHO-K1 cells optimized for automated patch clamp studies by Sophion Bioscience A/S [47].

Where [4] appears, read: Homo sapiens, U2OS, read-out: alt-NHEJ IC50.
[5] abbreviates: EJ-DR assay, Supplementary Table 2, mean ± SEM of four technical replicates.
The mark [6] stands for this setting: read-out: alt-NHEJ IC50, EJ-DR assay, Supplementary Table 2, mean ± SEM of four technical replicates.
Where [7] appears, read: EJ-DR U2OS cells, text and figures.
[8] abbreviates: read-out: alt-NHEJ IC50, EJ-DR U2OS cells, text and figures.
Setting [9] is: female, athymic nude, mouse, in vivo, po, 30 mg/kg.
Where [10] appears, read: oral 30 mg/kg, female athymic nude mice.

T1 sequence (P08684 whole entry): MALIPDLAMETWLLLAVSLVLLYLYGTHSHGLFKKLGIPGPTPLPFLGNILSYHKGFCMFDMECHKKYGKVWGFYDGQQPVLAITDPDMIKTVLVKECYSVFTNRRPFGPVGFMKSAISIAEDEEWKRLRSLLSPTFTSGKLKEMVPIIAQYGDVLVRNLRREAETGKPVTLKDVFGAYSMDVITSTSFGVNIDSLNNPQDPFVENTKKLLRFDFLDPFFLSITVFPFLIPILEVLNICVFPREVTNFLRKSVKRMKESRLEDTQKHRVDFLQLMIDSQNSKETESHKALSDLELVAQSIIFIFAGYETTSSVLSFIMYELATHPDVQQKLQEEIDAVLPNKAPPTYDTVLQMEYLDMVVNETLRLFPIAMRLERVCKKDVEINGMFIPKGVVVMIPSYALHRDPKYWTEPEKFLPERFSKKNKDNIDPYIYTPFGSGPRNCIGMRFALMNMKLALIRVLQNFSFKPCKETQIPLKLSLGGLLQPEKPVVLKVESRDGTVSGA
T6 sequence (Q9P0X4 whole entry): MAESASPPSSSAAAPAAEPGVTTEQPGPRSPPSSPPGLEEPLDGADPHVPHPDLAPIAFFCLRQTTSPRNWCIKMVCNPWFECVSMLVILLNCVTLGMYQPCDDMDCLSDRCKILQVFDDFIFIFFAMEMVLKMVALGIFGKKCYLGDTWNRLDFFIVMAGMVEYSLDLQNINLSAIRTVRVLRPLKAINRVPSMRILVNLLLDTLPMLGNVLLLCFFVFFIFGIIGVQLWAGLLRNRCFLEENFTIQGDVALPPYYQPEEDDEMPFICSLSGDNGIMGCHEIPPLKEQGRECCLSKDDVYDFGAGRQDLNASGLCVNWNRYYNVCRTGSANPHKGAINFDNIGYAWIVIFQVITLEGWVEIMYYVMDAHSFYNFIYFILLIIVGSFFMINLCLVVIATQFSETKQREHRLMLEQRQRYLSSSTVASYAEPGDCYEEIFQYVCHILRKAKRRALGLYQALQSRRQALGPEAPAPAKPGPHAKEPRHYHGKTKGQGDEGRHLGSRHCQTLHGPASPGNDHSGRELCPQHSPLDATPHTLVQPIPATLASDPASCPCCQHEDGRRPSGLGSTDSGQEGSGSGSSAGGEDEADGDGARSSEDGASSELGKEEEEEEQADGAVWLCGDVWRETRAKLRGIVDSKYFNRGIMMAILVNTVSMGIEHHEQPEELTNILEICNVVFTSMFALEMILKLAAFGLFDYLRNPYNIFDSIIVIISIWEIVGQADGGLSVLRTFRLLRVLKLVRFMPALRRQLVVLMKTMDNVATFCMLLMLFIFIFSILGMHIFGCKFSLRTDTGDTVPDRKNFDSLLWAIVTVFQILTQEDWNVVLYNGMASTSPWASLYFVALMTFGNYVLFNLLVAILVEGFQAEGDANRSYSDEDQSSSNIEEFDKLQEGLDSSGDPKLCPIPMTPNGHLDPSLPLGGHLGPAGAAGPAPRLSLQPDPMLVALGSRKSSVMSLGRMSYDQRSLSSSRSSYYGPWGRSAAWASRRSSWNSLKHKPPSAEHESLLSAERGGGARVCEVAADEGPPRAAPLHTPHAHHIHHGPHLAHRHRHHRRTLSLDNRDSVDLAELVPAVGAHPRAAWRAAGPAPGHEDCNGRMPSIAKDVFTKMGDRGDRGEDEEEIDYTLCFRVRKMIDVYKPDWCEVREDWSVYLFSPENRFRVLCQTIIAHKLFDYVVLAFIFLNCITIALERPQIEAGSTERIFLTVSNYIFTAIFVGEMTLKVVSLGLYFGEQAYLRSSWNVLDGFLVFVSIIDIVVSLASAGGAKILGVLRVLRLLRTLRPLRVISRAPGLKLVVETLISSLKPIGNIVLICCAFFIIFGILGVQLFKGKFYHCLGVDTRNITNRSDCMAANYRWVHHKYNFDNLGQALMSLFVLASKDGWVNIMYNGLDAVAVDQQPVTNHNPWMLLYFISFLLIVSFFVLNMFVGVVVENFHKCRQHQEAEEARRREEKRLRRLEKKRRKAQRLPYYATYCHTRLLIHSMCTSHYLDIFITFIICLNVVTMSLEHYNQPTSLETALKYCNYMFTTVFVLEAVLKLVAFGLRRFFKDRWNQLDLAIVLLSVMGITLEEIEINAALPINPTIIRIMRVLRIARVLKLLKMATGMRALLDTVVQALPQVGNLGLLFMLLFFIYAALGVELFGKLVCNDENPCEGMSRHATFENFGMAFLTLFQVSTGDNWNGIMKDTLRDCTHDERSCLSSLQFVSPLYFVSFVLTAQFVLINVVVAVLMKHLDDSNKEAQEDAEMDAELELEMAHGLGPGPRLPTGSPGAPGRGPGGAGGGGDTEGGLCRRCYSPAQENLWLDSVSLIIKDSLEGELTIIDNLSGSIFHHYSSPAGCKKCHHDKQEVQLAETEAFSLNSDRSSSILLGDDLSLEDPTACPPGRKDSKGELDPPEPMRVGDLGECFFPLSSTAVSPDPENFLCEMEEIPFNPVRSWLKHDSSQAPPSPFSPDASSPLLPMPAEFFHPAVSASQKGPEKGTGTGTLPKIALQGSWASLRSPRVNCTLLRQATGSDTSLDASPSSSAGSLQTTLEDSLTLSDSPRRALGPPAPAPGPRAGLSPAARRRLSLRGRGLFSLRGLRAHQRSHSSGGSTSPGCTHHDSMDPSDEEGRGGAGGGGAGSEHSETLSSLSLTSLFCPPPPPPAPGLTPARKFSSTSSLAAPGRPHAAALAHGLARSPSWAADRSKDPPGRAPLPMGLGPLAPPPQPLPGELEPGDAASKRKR
Method for EJ-DR U2OS cells: as §4, §5, §6
Method for L type Cav 1.2: (§7) Calcium channel blocking studies were performed by Charles River Laboratories in Chinese Hamster Ovary (CHO) and HEK293 cell lines stably expressing L-Type and T-type calcium channels, respectively, under tetracycline induction in accordance with a previously published study [46]. Data acquisition and analysis was performed using the IonWorks Quattro™ or Barracuda system software (Molecular Devices Corporation).
Method for T type Cav 3.1: as §7
Method for T type Cav 3.2: as §7
Method for T type Cav 3.3: as §7
From the text for alt-NHEJ: The EJ-DR system was made in the U2OS cell line, which provides a simultaneous read-out of alt-NHEJ and HR activity in cells in response to induced DSBs. The cell line consists of a repair template and a reporter vector. When both these elements are chromosomally integrated, cleavage of a restriction enzyme site in the repair template, induced by ligand addition, causes a DSB. Depending on which DSB repair pathway is utilized, cells either express GFP if HR is used to repair the break site using the downstream homology template near the restriction enzyme site, or RFP if alt-NHEJ is involved in ligation of the cut ends.
An overview of the workflow of this assay is presented in Figure 1A, which starts with the addition of the test compounds and DSB ligands, followed by a media wash 24 hours later to terminate DSB induction, and then live cell imaging 96 hours later. After live cell imaging, we quantify the individual intensities of GFP and RFP signal in cells using the IN Cell imager. We then use the intensity measurements of individual cells in each channel and plot these intensities as a histogram to threshold out baseline levels of GFP and RFP intensity in the absence of ligands (Figure 1B and 1C). After applying the threshold, the percent of GFP and RFP-positive cells is calculated as a readout of induction of HR and alt-NHEJ activity, respectively.
In addition to quantifying HR and alt-NHEJ activities, cytotoxicity in the absence of DSB ligands (CT) was also evaluated by quantifying the number of Hoeschst 33342-stained cells, allowing us to better understand the margin between on-target and presumable off-target, DNA repair-independent effects. IC50 values of HR inhibition, alt-NHEJ inhibition, and CT were used to calculate the “selectivity index” (SI) (defined as the ratio of CT IC50/alt-NHEJ IC50) and alt-NHEJ selectivity defined as HR IC50/alt-NHEJ IC50.
The EJ-DR cell line was created in the U2OS cells (a human osteosarcoma cell line), and contained a stably integrated EJ-RFP plasmid to measure alt-NHEJ repair and a DR-GFP plasmid to measure HR repair, and has been previously described [9]. The EJ-DR cell line was cultured in high glucose Dulbecco’s modified Eagle’s medium (DMEM; Thermo Fisher Scientific) with L-glutamine containing 10% tetracycline-free (tet-free) fetal bovine serum (FBS; Takara Bio Inc. and Atlanta Biologics) and 1% Penicillin Streptomycin (Thermo Fisher Scientific). Tet-free FBS was used to prevent any expression of the tetracycline-inducible EJ-RFP system from residual tetracycline found in most commercially available FBS. All cells were maintained at 37°C with 5% CO2.
The EJ-DR cells were plated in 384-well imaging plates at 2500 cells/well. 24 hours later, the DSB ligands, Triamcinolone Acetonide (TA; Sigma-Aldrich Co., LLC) and Shield-1 (Takara Bio Inc.), responsible for inducing the DSBs, were added for a final concentration of 100 nM TA and 1 μM Shield-1. Test compounds were also added at the same time using Echo 550 Acoustic Dispenser (Labcyte). A separate plate was seeded to test for cytotoxicity of the test compounds in the absence of the DSB ligands. […] The DSB ligands were washed out 24 hours after addition. 96 hours after addition of the ligands and test compounds, the media was washed off and cells were incubated with Hoechst nuclear stain in Live Cell Imaging Solution (Thermo Fisher Scientific). Plates were rinsed and prepared for immediate live cell imaging using GE IN Cell 2200 (Cytiva Life Sciences).

As for `O=C(NC(CCN1CC(Oc2nccc3ccccc23)CC1CO)c1ccc(F)cc1)C1CCC(F)(F)CC1` (stereo not drawn) [YU253106], the values for the IC50 at CYP3A4, against CYP2D6 and in the data set on alt-NHEJ (setting [4]) were 14500 nM, 2300 nM and 1400 nM, respectively. Also, the selectivity ratio on CYP3A4 (ratio) was found to be 10.3; on CYP2D6 (ratio), 1.64.

On to `CCc1cncnc1N1CCN(Cc2nc3ccc(C(F)(F)F)cc3[nH]2)CC1` [PF-04708671], for which the IC50 with EJ-DR U2OS cells is 36900 ± 3820 nM; in the data set on HR (setting [5]), greater than 60000 nM; with alt-NHEJ (setting [6]), greater than 60000 nM.

Turning to `O.O=C(O)C(F)(F)F.O=c1[nH]c2ccccc2n1C1CCN(Cc2ccc(-c3nc4cc5[nH]cnc5cc4nc3-c3ccccc3)cc2)CC1` [Akt-1/2 inhibitor], the IC50 is greater than 10000 nM in the data set with HR (setting [7]) and 150 nM in the data set with alt-NHEJ (setting [8]). Moreover, the “selectivity index SI (CT IC50/alt-NHEJ IC50)” value in the data set on alt-NHEJ (ratio) was 77.67.

Turning to `CC(=O)c1c(C)c2cnc(Nc3ccc(N4CCNCC4)cn3)nc2n(C2CCCC2)c1=O` [Pablociclib], the results for the IC50 in the data set with EJ-DR U2OS cells, with HR (setting [5]) and in the data set with alt-NHEJ (setting [6]) were 1370 ± 360 nM, 60 ± 10 nM and 40 ± 10 nM, respectively. In addition, in the data set with alt-NHEJ (ratio, Supplementary Table 2), the “Selectivity Index (HR IC50/alt-NHEJ IC50)” value was found to be 1.50.

As for `C[C@H]1COCCN1c1cc(C2(S(=O)(=O)C3CC3)CC2)nc(-c2ccc(NC(=S)NCCO)cc2)n1` [mTORC1/2 inhibitor, AZD 3147], the figures for the IC50 in the data set on HR (setting [7]) and with alt-NHEJ (setting [8]) were 7180 nM and 90 nM, respectively. Further, in the data set with alt-NHEJ (ratio), the “selectivity index SI (CT IC50/alt-NHEJ IC50)” value amounted to 7.22.

Turning to `NC(=O)Nc1cc(-c2cccc(F)c2)sc1C(=O)N[C@H]1CCCNC1` [AZD 7762], the 50% inhibitory concentration (IC50) is 130 ± 10 nM in the data set with EJ-DR U2OS cells (Homo sapiens, U2OS); greater than 60000 nM in the data set on HR (Homo sapiens); greater than 60000 nM in the data set with alt-NHEJ (Homo sapiens, read-out: alt-NHEJ IC50).

As to `CC(C)C(C(=O)NCCCN1CC=C(c2ccc(Cl)cc2)CC1)c1ccc(F)cc1` (stereo not drawn) [YU252386], in data set [1] (Table 1, read-out: Cytotoxicity IC50), the IC50 at 96 h is 17900 nM. For the same compound, the half-maximal inhibitory concentration (IC50) is 5600 nM on L type Cav 1.2; 900 nM at T type Cav 3.1; 900 nM on T type Cav 3.2; 1100 nM at T type Cav 3.3; 17900 nM at CYP3A4; 870 nM at CYP2D6. Also, the 50% inhibitory concentration (IC50) in the data set on HR (Homo sapiens) is greater than 60000 nM; with alt-NHEJ (setting [4]), 1060 nM; in the data set with alt-NHEJ (Homo sapiens, read-out: nc-EJ IC50), 1100 nM. Besides, the selectivity ratio at CYP3A4 (ratio) was 16.9; on CYP2D6 (ratio) it was 0.82. The “SICYP 3A4 (selectivity index of CYP, CYP3A4 IC50 to alt-NHEJ IC50), called fold decrease in CYP3A4 inhibition” value on CYP3A4 (ratio) is on record as ~ 17. Further, the half-life in data set [2] (setting [9]) is 4.01 h; in [3] (setting [9]), roughly 2.5 h. Besides, in [2] (setting [10]), the “% AUC Extrapolation” value is 7.5%. In addition, the “AUC(0-x)/Dose” value in data set [2] (setting [10]) worked out at 45.0 ng·h/mL/mg/kg. This compound returned a Cmax/Dose in [2] (setting [10]) of 11.3 ng/mL/mg/kg. For the same compound, in data set [2] (setting [10]), the “Time at which Cmax was observed (tmax)” value was 1.0 h. In addition, the “plasma concentration compared with mibefradil” value in [2] (setting [10]) was ~ 0.3 fold. Also, in data set [2] (oral 30 mg/kg, female athymic nude mice, YU252222 given as methyl ester prodrug), the “Area under concentration vs time curve (AUC) (0-x)” value is 1350 ng·h/mL. Moreover, the “brain concentration relative to the alt-NHEJ IC50” value in data set [3] (setting [10]) was ~ 3 fold. In [3] (setting [10]), the “brain exposure compared to mibefradil” value was ~ 8 fold. Besides, the “percent coverage of the in vitro alt-NHEJ IC50 at the Cmax in the brain” value in data set [3] (setting [10]) is given as 300%.

Take `COCC(=O)OC1(CCN2CC(Oc3nccc4ccccc34)CC2CO)CCc2cc(F)ccc2C1C(C)C` (stereo not drawn) [YU252376]: the IC50 was determined as 12600 nM on CYP3A4, 3500 nM on CYP2D6 and 1100 nM with alt-NHEJ (setting [4]). The selectivity ratio is 11.4 at CYP3A4 (ratio) and roughly 3 at CYP2D6 (ratio). Further, the “SICYP 2D6 (selectivity index of CYP, CYP2D6 IC50 to alt-NHEJ IC50), called fold decrease in CYP2D6 inhibition” value on CYP2D6 (ratio) was 3.18.

For the compound `CC(C)[C@H]1c2ccc(F)cc2CC[C@]1(O)CCN1C[C@H](Oc2nccc3ccccc23)C[C@H]1CO` [YU252223], the IC50 against Human hERG (Kv11.1) (patch clamp, CHO-K1 cells) was determined as 6800 nM; in the data set with alt-NHEJ (setting [4]), 1640 nM. On Human hERG (Kv11.1) (ratio), the “SIhERG (hERG IC50/alt-NHEJ IC50), called fold reduction in hERG potency” value is 4.14.

Regarding `CC(C)[C@H]1c2ccc(F)cc2CC[C@]1(O)CC(=O)N(C)CCCc1nc2ccccc2[nH]1` [YU241551], the 50% inhibitory concentration (IC50) at 96 h in data set [1] (figures, read-out: CT IC50 (cytotoxicity)) is greater than 60000 nM. Further, the concentration for half-maximal inhibition (IC50) in the data set on alt-NHEJ (setting [4]) is greater than 60000 nM. The “selectivity index SI (CT IC50/alt-NHEJ IC50)” value in the data set on alt-NHEJ (ratio) is listed as greater than 1.
